Earlier results in patent publication US20160128970A1, “COMPOSITION AND METHOD FOR TREATING NOSEBLEEDS” (BINYARCO, LLC, priority 2005, published 2016).

## bismuth subgallate
  solubility in water: insoluble in water
